≈ marks a conversion by molar mass, not a printed value.
Tests used:
Experiment in all cases: in vitro antibacterial evaluation, MIC by broth dilution
Assay type in all cases: cell-based
Staphylococcus sp. = details: broth dilution, 18 hours at 35° C.; for MIC Staphylococcus aureus (GC 1131): strain GC 1131
Outline: (§1)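 Broth dilution per NCCLS standard M7-A2 in Muller-Hinton II […], with an inoculum of 5×10^5 CFU/mL and antibiotic spanning 64-0.06 μg/mL. The MIC is the lowest concentration that inhibits growth of the organism.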

Streptococcus sp. = details: broth dilution, 18 hours at 35° C.
Outline: as §1

Enterococcus sp. = details: broth dilution, 18 hours at 35° C.
Outline: as §1

Escherichia coli = details: 18 hours at 35° C.

Compound: Cc1ccc(Oc2cccc(C3OCC4OC(OC5C(CO)OC(Oc6ccc(CC7NC(=O)C(C(C)c8ccccc8)NC(=O)CNC(=O)C(CO)NC(=O)C(C(O)C8CNC(=N)N8C8OC(CO)C(O)C(O)C8O)NC(=O)C(C(O)C8CNC(=N)N8)NC7=O)cc6I)C(O)C5O)C(O)C(O)C4O3)c2)cc1 (centres unmarked) [Example 197]
- MIC Staphylococcus aureus (GC 1131) (Staphylococcus sp.; inoculum 5×10^5 CFU/mL): 16 mg/L (≈ 9.9 µM)
- MIC Staphylococcus aureus (ATCC 29213) (Staphylococcus sp.; strain ATCC 29213): 32 mg/L (≈ 19.8 µM)
- MIC Staphylococcus aureus (GC 1131) (Staphylococcus sp.): 16 mg/L (≈ 9.9 µM)
- MIC Staphylococcus aureus (GC 3051) (Staphylococcus sp.; strain GC 3051): 64 mg/L (≈ 39.6 µM)
- MIC Staphylococcus aureus (GC 3053) (Staphylococcus sp.; strain GC 3053): 64 mg/L (≈ 39.6 µM)
- MIC Staphylococcus aureus (GC 4541) (Staphylococcus sp.; strain GC 4541): 16 mg/L (≈ 9.9 µM)
- MIC Staphylococcus aureus (GC 4542) (Staphylococcus sp.; strain GC 4542): 64 mg/L (≈ 39.6 µM)
- MIC Staphylococcus aureus-SMITH (GC 4543) (Staphylococcus sp.; strain GC 4543): 16 mg/L (≈ 9.9 µM)
- MIC Staphylococcus aureus (GC 4544) (Staphylococcus sp.; strain GC 4544): 32 mg/L (≈ 19.8 µM)
- MIC Staphylococcus aureus (GC 4545) (Staphylococcus sp.; strain GC 4545): 32 mg/L (≈ 19.8 µM)
- MIC Staphylococcus haemolyticus (GC 4546) (Staphylococcus sp.; strain GC 4546): 32 mg/L (≈ 19.8 µM)
- MIC Coagulase Negative Staphylococcus (GC 4547) (Staphylococcus sp.; strain GC 4547): 32 mg/L (≈ 19.8 µM)
- MIC Coagulase Negative Staphylococcus (GC 4548) (Staphylococcus sp.; strain GC 4548): 8 mg/L (≈ 4.95 µM)
- MIC Coagulase Negative Staphylococcus (GC 4549) (Staphylococcus sp.; strain GC 4549): 8 mg/L (≈ 4.95 µM)
- MIC Coagulase Negative Staphylococcus (GC 4551) (Staphylococcus sp.; strain GC 4551): 16 mg/L (≈ 9.9 µM)
- MIC Coagulase Negative Staphylococcus (GC 6257) (Staphylococcus sp.; strain GC 6257): 4 mg/L (≈ 2.48 µM)
- MIC Streptococcus agalactiae (GC 4564) (Streptococcus sp.): 16 mg/L (≈ 9.9 µM)
- MIC Streptococcus pneumoniae (ATCC 6301) (Streptococcus sp.): 4 mg/L (≈ 2.48 µM)
- MIC Streptococcus pneumoniae (GC 1894) (Streptococcus sp.): 8 mg/L (≈ 4.95 µM)
- MIC Streptococcus pneumoniae (GC 4565) (Streptococcus sp.): 8 mg/L (≈ 4.95 µM)
- MIC Streptococcus pyogenes (GC 4563) (Streptococcus sp.): 16 mg/L (≈ 9.9 µM)
- MIC Streptococcus pneumoniae (ATCC 6301) (Streptococcus sp.; inoculum 5×10^5 CFU/mL, strain ATCC 6301): 4 mg/L (≈ 2.48 µM)
- MIC Streptococcus pneumoniae (GC 1894) (Streptococcus sp.; inoculum 5×10^5 CFU/mL, strain GC 1894): 8 mg/L (≈ 4.95 µM)
- MIC Streptococcus pyogenes (GC 4563) (Streptococcus sp.; inoculum 5×10^5 CFU/mL, strain GC 4563): 16 mg/L (≈ 9.9 µM)
- MIC Streptococcus agalactiae (GC 4564) (Streptococcus sp.; inoculum 5×10^5 CFU/mL, strain GC 4564): 16 mg/L (≈ 9.9 µM)
- MIC Streptococcus pneumoniae (GC 4565) (Streptococcus sp.; inoculum 5×10^5 CFU/mL, strain GC 4565): 8 mg/L (≈ 4.95 µM)
- MIC Enterococcus avium (GC 4558) (Enterococcus sp.): 16 mg/L (≈ 9.9 µM)
- MIC Enterococcus faecalis (ATCC 29212) (Enterococcus sp.): >64 mg/L
- MIC Enterococcus faecalis (GC 2242) (Enterococcus sp.): >64 mg/L
- MIC Enterococcus faecalis (GC 2691) (Enterococcus sp.): >64 mg/L
- MIC Enterococcus faecalis (GC 3059) (Enterococcus sp.): >64 mg/L
- MIC Enterococcus faecalis (GC 4552) (Enterococcus sp.): >64 mg/L
- MIC Enterococcus faecalis (GC 4553) (Enterococcus sp.): 64 mg/L (≈ 39.6 µM)
- MIC Enterococcus faecalis (GC 4554) (Enterococcus sp.): >64 mg/L
- MIC Enterococcus faecalis (GC 6189) (Enterococcus sp.): 64 mg/L (≈ 39.6 µM)
- MIC Enterococcus faecium (GC 2243) (Enterococcus sp.): 64 mg/L (≈ 39.6 µM)
- MIC Enterococcus faecium (GC 4556) (Enterococcus sp.): >64 mg/L
- MIC Enterococcus faecium (GC 4557) (Enterococcus sp.): 8 mg/L (≈ 4.95 µM)
- MIC Enterococcus faecalis (ATCC 29212) (Enterococcus sp.; inoculum 5×10^5 CFU/mL, strain ATCC 29212): >64 mg/L
- MIC Enterococcus faecalis (GC 2242) (Enterococcus sp.; inoculum 5×10^5 CFU/mL, strain GC 2242): >64 mg/L
- MIC Enterococcus faecium (GC 2243) (Enterococcus sp.; inoculum 5×10^5 CFU/mL, strain GC 2243): 64 mg/L (≈ 39.6 µM)
- MIC Enterococcus faecalis (GC 2691) (Enterococcus sp.; inoculum 5×10^5 CFU/mL, strain GC 2691): >64 mg/L
- MIC Enterococcus faecalis (GC 3059) (Enterococcus sp.; inoculum 5×10^5 CFU/mL, strain GC 3059): >64 mg/L
- MIC Enterococcus faecalis (GC 4552) (Enterococcus sp.; inoculum 5×10^5 CFU/mL, strain GC 4552): >64 mg/L
- MIC Enterococcus faecalis (GC 4553) (Enterococcus sp.; inoculum 5×10^5 CFU/mL, strain GC 4553): 64 mg/L (≈ 39.6 µM)
- MIC Enterococcus faecalis (GC 4554) (Enterococcus sp.; inoculum 5×10^5 CFU/mL, strain GC 4554): >64 mg/L
- MIC Enterococcus faecium (GC 4556) (Enterococcus sp.; inoculum 5×10^5 CFU/mL, strain GC 4556): >64 mg/L
- MIC Enterococcus faecium (GC 4557) (Enterococcus sp.; inoculum 5×10^5 CFU/mL, strain GC 4557): 8 mg/L (≈ 4.95 µM)
- MIC Enterococcus avium (GC 4558) (Enterococcus sp.; inoculum 5×10^5 CFU/mL, strain GC 4558): 16 mg/L (≈ 9.9 µM)
- MIC Enterococcus faecalis (GC 6189) (Enterococcus sp.; inoculum 5×10^5 CFU/mL, strain GC 6189): 64 mg/L (≈ 39.6 µM)
- MIC Escherichia coli (ATCC 25922) (Escherichia coli): 32 mg/L (≈ 19.8 µM)
- MIC Escherichia coli (GC 4559) (Escherichia coli): 64 mg/L (≈ 39.6 µM)
- MIC Escherichia coli (GC 4560) (Escherichia coli): 16 mg/L (≈ 9.9 µM)

From patent US6914045B2, “Glycopeptide antibiotics” (Wyeth Holdings Corporation, priority 2001, dated 2005)
